Active and inactive are the calls of the source. Where only a bound is given, the exact number is not on record here.

The target of assay [1] is Luciferin 4-monooxygenase (Photinus pyralis, UniProt P08659). The assay can be described thus: firefly luciferase enzyme inhibitors, dose response, biochemical, luminescence (AID 1891).
Assay [2] is described as follows: Luminescence Cell-Based Dose Confirmation HTS to Identify Inhibitors of Platelet Dense Granule Release. [Related pubchem assays: 1663 (Primary HTS), 1678 (Summary of Project)]. It is filed as functional.
Assay [3] can be described thus: NIH-3T3 fibroblast cytotoxicity, dose response, cytotoxicity control, cell-based, fluorescence, Alamar Blue, secondary assay (AID 2327).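 Further: NIH-3T3 mouse fibroblasts cultured with fluconazole at 8 µg/mL.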 It is filed as functional. Background: The colour change of resazurin is a common sign of viable cells or microbes.
The next assay addresses T1, Aminopeptidase N (Plasmodium falciparum FcB1/Columbia, UniProt O96935).
T1 sequence (O96935 whole entry): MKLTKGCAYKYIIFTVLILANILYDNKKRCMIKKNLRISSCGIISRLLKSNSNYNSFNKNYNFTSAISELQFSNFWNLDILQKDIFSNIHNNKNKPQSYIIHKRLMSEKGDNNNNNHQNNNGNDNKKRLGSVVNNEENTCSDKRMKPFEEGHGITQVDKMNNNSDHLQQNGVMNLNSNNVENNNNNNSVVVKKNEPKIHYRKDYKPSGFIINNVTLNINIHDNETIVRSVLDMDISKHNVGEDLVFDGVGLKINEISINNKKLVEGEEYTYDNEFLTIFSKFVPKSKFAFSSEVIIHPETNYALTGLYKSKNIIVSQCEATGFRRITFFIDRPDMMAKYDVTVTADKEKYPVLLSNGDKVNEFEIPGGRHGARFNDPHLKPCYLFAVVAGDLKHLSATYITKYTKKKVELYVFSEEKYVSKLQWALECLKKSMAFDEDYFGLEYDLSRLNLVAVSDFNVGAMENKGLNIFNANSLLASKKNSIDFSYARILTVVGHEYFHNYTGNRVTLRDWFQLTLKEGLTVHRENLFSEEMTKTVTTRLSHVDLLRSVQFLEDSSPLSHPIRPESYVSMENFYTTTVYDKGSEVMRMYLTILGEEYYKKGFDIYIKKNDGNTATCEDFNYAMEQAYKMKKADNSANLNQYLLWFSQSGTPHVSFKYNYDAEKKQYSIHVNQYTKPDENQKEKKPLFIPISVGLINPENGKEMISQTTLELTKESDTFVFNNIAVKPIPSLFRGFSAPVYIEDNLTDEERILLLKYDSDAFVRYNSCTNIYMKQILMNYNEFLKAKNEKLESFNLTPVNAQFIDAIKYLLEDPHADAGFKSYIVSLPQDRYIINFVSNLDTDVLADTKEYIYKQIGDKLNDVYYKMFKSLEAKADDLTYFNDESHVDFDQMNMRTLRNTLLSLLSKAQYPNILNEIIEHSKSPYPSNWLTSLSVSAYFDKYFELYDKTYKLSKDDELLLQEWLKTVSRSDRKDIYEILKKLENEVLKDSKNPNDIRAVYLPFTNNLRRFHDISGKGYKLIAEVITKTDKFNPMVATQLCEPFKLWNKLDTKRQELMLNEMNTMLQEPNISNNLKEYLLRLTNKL
The assay can be described thus: P. falciparum M1AAP inhibitors, biochemical, fluorogenic H-Leu-NHMec substrate, 1536-well (AID 1445). On the set-up: species or system Plasmodium falciparum 3D7, 3D7.

Assay [4] deals with T2, Short transient receptor potential channel 4 (Mus musculus, UniProt Q9QUQ5).
T2 sequence (Q9QUQ5 whole entry): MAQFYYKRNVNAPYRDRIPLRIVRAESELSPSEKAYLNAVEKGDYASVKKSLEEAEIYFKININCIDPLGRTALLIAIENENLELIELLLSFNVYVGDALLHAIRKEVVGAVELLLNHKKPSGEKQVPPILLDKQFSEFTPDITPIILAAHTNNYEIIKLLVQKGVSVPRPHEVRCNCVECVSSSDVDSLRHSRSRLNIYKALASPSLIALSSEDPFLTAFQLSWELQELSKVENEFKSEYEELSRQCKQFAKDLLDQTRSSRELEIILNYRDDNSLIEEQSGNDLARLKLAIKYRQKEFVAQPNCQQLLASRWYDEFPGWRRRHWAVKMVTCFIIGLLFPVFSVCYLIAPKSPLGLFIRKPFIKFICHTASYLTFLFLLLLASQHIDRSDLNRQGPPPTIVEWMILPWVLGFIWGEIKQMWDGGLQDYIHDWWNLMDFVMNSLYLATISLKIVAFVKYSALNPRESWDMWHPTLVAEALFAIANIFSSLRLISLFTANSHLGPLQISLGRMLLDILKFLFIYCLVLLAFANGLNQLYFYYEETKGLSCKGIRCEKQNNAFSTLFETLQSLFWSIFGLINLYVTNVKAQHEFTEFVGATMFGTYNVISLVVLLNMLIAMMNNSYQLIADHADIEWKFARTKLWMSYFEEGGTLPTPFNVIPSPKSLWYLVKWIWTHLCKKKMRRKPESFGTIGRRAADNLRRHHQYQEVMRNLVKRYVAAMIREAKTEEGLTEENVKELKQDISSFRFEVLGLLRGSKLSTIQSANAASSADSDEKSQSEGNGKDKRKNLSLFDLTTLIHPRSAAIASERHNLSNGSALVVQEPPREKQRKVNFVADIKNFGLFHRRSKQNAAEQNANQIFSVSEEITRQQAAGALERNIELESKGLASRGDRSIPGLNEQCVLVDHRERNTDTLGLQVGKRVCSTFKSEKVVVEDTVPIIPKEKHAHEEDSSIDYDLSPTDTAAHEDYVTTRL
The assay can be described thus: mouse TRPC4 channel inhibitors, dose response, cell-based, HEK293 TRPC4/mu-opioid, Fluo-4 calcium (AID 434942).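 Further: potency of inhibitors blocking the TRPC4 calcium response.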 Format: functional.

The target of assay [5] is FAD-linked sulfhydryl oxidase ALR (Homo sapiens, UniProt P55789). The assay can be described thus: inhibitors of human ALR sulfhydryl oxidase, dose response, biochemical, H2O2 detection, luminescence, cherry-pick (AID 493248).
FAD-linked sulfhydryl oxidase ALR, sequence (P55789 whole entry): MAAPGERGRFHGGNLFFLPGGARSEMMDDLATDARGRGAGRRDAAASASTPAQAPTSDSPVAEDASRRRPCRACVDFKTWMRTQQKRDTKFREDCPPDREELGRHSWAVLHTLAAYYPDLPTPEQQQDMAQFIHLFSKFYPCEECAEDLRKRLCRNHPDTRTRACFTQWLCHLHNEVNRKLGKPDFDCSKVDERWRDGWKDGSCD
For a further assay, the target named is T3, Leucine aminopeptidase (Plasmodium falciparum 3D7, UniProt Q8IL11).
T3 sequence (Q8IL11 whole entry): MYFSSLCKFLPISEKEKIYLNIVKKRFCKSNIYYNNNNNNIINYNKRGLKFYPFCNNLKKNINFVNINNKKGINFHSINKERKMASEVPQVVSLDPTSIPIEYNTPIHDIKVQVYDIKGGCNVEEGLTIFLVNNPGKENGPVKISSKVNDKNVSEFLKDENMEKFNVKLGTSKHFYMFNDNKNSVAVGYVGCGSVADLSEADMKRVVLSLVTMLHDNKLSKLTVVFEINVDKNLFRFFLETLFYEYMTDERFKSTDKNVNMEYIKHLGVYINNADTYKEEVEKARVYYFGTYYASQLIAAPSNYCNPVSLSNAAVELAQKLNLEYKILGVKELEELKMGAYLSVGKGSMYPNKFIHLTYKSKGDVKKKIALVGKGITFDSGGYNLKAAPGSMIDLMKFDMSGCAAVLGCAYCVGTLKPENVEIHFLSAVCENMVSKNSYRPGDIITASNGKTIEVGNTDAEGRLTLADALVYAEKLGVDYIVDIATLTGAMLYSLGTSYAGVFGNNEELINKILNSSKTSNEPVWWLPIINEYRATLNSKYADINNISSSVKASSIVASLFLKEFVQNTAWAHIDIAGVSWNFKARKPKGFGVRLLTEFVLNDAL
The assay can be described thus: P. falciparum M17LAP inhibitors, primary screen, biochemical, fluorogenic H-Leu-NHMec substrate, 1536-well (AID 1619). Format: functional.

For a further assay, the target named is Nonstructural protein 1 (Influenza A virus, UniProt Q194T2). Format: functional, Influenza A virus (A/California/07/2009(H1N1)).
Nonstructural protein 1, sequence (Q194T2 whole entry): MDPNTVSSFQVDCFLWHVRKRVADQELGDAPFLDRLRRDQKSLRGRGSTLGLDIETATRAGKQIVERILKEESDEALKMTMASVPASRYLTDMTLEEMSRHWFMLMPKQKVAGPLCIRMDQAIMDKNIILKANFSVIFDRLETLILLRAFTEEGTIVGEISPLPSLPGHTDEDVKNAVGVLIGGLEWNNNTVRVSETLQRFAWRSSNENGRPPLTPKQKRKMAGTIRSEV
The target in assay [6] is Induced myeloid leukemia cell differentiation protein Mcl-1 (Homo sapiens, UniProt Q07820). Format: functional.
Induced myeloid leukemia cell differentiation protein Mcl-1, sequence (Q07820 whole entry): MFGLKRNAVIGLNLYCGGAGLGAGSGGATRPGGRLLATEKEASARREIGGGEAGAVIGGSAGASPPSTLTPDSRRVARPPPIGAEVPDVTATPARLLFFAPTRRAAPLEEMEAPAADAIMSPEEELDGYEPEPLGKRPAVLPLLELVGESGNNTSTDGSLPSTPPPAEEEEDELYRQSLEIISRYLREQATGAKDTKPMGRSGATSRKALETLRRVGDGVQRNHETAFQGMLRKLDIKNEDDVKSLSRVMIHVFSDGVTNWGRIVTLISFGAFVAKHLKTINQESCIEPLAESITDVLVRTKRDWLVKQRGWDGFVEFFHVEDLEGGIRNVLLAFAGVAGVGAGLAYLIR
A further assay concerns the target Genome polyprotein (dengue virus type 2, UniProt P29990). Briefly: Dengue-2 NS5 methyltransferase inhibitors, primary screen, biochemical, confirmation dose response (AID 588689). Format: functional.
In assay [7] the target is T4, Rac GTPase-activating protein 1 (Homo sapiens, UniProt Q9H0H5).
T4 sequence (Q9H0H5 whole entry): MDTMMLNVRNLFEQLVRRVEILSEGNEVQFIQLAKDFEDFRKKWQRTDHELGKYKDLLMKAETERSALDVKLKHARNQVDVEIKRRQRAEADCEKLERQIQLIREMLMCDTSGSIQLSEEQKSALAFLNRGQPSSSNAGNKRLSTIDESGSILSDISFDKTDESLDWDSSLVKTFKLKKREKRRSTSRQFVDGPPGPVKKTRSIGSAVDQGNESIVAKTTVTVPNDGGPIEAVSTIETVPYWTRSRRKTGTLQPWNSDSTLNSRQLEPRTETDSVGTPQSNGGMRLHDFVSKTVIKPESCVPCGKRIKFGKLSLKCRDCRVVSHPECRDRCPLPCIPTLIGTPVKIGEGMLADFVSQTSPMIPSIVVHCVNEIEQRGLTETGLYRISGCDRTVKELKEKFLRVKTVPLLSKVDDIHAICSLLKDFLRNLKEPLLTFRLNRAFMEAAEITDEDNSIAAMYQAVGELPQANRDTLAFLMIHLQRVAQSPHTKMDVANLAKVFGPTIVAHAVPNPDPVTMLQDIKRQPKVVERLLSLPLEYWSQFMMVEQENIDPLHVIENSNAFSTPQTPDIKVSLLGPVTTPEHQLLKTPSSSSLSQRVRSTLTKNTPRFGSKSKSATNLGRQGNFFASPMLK
The assay can be described thus: MgcRacGAP GTPase-activating activity inhibitors, confirmation, biochemical, ADP Hunter fluorescence, primary and confirmatory (AID 624330). Format: functional.

Assay [8] is described as follows: inhibitors of HIV Env-driven cell fusion, dose response, cherry-pick (AID 652057). It is filed as functional, cell-based.

Luciferin 4-monooxygenase, sequence (P08659 whole entry): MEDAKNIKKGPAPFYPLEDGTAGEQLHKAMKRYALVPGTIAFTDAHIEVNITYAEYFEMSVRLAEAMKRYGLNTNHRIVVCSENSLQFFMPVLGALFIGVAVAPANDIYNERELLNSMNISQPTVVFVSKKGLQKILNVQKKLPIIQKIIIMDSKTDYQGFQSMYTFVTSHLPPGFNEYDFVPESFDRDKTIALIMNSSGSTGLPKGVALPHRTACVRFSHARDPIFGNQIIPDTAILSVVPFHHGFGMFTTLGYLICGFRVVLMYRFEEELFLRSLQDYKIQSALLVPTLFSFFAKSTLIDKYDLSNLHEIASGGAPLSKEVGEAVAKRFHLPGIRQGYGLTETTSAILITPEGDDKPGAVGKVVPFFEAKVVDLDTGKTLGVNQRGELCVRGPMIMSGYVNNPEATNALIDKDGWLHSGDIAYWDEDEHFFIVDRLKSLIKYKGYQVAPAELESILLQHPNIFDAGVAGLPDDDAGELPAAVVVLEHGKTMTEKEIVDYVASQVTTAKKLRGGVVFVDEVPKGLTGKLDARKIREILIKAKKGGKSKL
Genome polyprotein, sequence (P29990 2492-3391 limits assumed): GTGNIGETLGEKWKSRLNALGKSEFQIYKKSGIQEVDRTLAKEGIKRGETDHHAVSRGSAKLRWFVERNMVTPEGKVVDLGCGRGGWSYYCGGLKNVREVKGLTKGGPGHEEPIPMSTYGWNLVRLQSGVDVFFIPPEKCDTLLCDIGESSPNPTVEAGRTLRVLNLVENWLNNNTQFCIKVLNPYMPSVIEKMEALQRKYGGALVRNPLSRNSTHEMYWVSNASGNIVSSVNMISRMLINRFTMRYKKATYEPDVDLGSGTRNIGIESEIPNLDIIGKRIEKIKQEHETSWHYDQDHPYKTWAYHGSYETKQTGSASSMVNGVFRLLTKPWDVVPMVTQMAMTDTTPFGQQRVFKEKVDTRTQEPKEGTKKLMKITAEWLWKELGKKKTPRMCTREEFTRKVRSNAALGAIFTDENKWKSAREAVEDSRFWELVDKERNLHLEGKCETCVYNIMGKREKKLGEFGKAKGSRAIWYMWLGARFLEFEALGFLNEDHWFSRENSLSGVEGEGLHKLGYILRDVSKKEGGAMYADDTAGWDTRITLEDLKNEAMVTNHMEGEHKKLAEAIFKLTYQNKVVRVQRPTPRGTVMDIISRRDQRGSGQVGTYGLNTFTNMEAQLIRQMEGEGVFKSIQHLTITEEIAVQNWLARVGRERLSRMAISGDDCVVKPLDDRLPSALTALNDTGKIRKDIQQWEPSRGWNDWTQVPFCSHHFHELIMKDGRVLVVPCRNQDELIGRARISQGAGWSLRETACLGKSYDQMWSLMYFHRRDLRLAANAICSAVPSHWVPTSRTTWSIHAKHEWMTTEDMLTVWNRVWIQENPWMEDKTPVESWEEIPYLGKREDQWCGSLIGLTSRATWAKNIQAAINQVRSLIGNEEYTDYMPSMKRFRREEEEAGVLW

As to `Cc1ccc2nc(NC(=O)CN3C(=O)NC4(CCCC4)C3=O)sc2c1`, the EC50 (usually the concentration that produces a half-maximal response) in assay [1] is 80 µM (active); in assay [2], > 112 µM (not active). Turning to `CC(=O)Nc1cccc(NC(=O)C2CCCN2C(=O)Nc2ccc(Cl)cc2)c1` (stereo unspecified), in [3], the EC50 is > 160 µM (inactive). The IC50 (usually the concentration that gives 50% inhibition) at Aminopeptidase N was 84.1 µM (active). With `COc1ccccc1N(C(=O)c1snc(C(N)=O)c1N)C(C(=O)NCc1ccccc1)c1ccc(C)o1` (stereo unspecified), the EC50 in assay [4] is 0.944 µM (active). Take `CC(=O)N1N=C(c2c(-c3ccccc3)c3cc(Br)ccc3[nH]c2=O)CC1c1ccco1` (stereo unspecified): the IC50 on Aminopeptidase N is 58.8 µM (active). With `CCOc1ccccc1N1CC(C(=O)Nc2nccs2)CC1=O` (stereo unspecified), the EC50 in [1] and in assay [2] was > 112 µM (not active) each time. As to `CCc1cc(C(=O)c2ccc(OC)cc2)c(NC(=O)CC(C)(C)CC(=O)O)s1`, the AC50 (commonly the midpoint of the concentration-response curve, whichever way the signal moves) in assay [5] was 4.26 µM (active). The same measure, in the same setting: under `CCN(CC)c1ccc(NC(=O)CN2CCN(CC(=O)Nc3ccccc3F)CC2)cc1` stands 1.18 µM (active). Regarding `CCC(C)(C)NC(=O)CN(Cc1ccc2c(c1)OCO2)C(=O)CCC(=O)Nc1ccccn1`, the IC50 on Aminopeptidase N is 67 µM (active).

Regarding `COc1ccc(NC(=S)NNc2ccc(S(=O)(=O)Nc3ccccc3C(=O)O)cc2[N+](=O)[O-])cc1`, the half-maximal inhibitory concentration (IC50) on Leucine aminopeptidase is 4.33 µM (active); on Nonstructural protein 1, 31.7 µM (active); at Aminopeptidase N, 4.17 µM (active); in assay [6], 3.37 µM (not active); at Genome polyprotein, 15.8 µM (active). Consider `CC(NC(=O)c1cccc(N(C)C)c1)c1ccc(-n2ccnc2)cc1` (stereo unspecified), for which, in [5], the AC50 is 9.59 µM (active). On to `O=C(Nc1ccc(-c2nc3ccccc3o2)cc1)C1CCCO1` (stereo unspecified), for which the EC50 in assay [1] was 2.6 µM (active); in assay [2], 2.58 µM (active). For `COc1cc(C(c2sc3nc(C)nn3c2O)N2CCOCC2)cc(OC)c1OC` (stereo unspecified), in that order: > 112 µM (not active) and 18.6 µM (active). Take `O=C(Nc1ccc(O)cc1)c1ccc(C(=O)c2ccccc2)o1`: the IC50 in assay [7] was 19.5 µM (active). Also, the AC50 in [5] was 2.25 µM (active). For `COc1cc(OC)c(-c2nnc3n(CCc4ccccc4)c(=O)c4ccccc4n23)cc1OC`, the EC50 in assay [1] and in assay [2] was > 112 µM (not active) throughout. Consider `CC(CN(C)C)CN1c2ccccc2Sc2ccccc21` (stereo unspecified), for which the AC50 in [5] is 1.25 µM (active). As for `COc1ccccc1CNCc1ccc(OC)c2ccccc12`, in assay [4], the EC50 is 5.31 µM (active). Turning to `C[C@H](CO)N1C[C@H](C)[C@H](CN(C)S(=O)(=O)c2ccc(C#N)cc2)Oc2ncc(/C=C/c3ccccc3)cc2C1=O`, the concentration at half-maximal activity (AC50) in [8] was 7.61 µM (active). As to `C/C(=N/NS(=O)(=O)c1ccc(Br)cc1)c1ccc(C)o1`, in [5], the AC50 was 15.4 µM (active).

As for `O=C1Nc2ccccc2Nc2ncccc21`, the concentration for a half-maximal effect (EC50) in assay [1] and in [2] was > 112 µM (not active) in each case.

The values are drawn from ChEMBL document CHEMBL1201862, “PubChem BioAssay data set” (2004).
